Results published in PMC3832412 (PLoS ONE, 2013).
“Also recorded” adds a separate entry of the source.

How the values were obtained:
[1] = test system: NMDAR in primary rat hippocampal neurons; type: cell-based, rat (Sprague-Dawley)
[2] = test system: NMDAR in primary rat hippocampal neurons; type: cell-based, rat (Sprague-Dawley); remark: listed apart in the source

**Q.** “GIKAQRDILYYγGγGγEHI-CONH2 [scrambled peptide]” was tested. Which “inhibition of NMDA-evoked current” value [1] did it give?
**A.** The value was “did not inhibit NMDA-evoked currents; also recorded: no such inhibitory activity”.

**Q.** What about the “effect on iCa^2+ levels” value [2] of the same substance?
**A.** The value was “did not result in any decrease in iCa^2+ levels; also recorded: no significant differences; also recorded: no such inhibitory activity”.
